# Assay results: ChEMBL document CHEMBL1287762, “Synthesis and biological evaluation of 3-[4-(amino/methylsulfonyl)phenyl]methylene-indolin-2-one derivatives as novel COX-1/2 and 5-LOX inhibitors” (Bioorg Med Chem Lett, 2010)
# Assays:
# [1] = Inhibition of 5-LOX in rabbit peripheral venous blood assessed as formation of […] after 30 mins by HPLC; assay type: tissue-based, Oryctolagus cuniculus
# [2] = species: Oryctolagus cuniculus; test: Selectivity ratio, IC50 for COX-1in rabbit peripheral venous blood to IC50 for COX-2 in rabbit peripheral venous blood; assay type: tissue-based
# [3] = tested on: Rattus norvegicus; test: Antiinflammatory activity in Wistar rat assessed as inhibition of carrageenan-induced paw edema at 13 mg/kg, po administered 1 hr before carrageenan challenge measured at 1 hr by plethysmometer; assay type: functional
# [4] = tested on: Rattus norvegicus; test: Antiinflammatory activity in Wistar rat assessed as inhibition of carrageenan-induced paw edema at 1 mg/kg, po administered 1 hr before carrageenan challenge measured at 3 hrs by plethysmometer; assay type: functional
# [5] = tested on: Rattus norvegicus; test: Antiinflammatory activity in Wistar rat assessed as inhibition of carrageenan-induced paw edema at 13 mg/kg, po administered 1 hr before carrageenan challenge measured at 6 hrs by plethysmometer; assay type: functional
# [6] = tested on: Mus musculus; test: Analgesic activity in BALB/c mouse assessed as inhibition of acetic acid-induced writhing response for 15 mins at 26 mg/kg, po; assay type: functional; conditions: 0.25 h
# [7] = tested on: Rattus norvegicus; test: Ulcerogenic effect in Wistar rat assessed as gastric ulcer area at 13 mg/kg, po administered for 7 days by microscopy; assay type: toxicity, organism-based, Stomach; design: dose 13 mg/kg, route oral; conditions: in vivo, 168 h
# [8] = molecular target: T1, Prostaglandin G/H synthase 2 (Oryctolagus cuniculus, UniProt O02768); test: Inhibition of COX-2 in rabbit peripheral venous blood assessed as formation of 12-hydroxyheptadecatrienoic acid after 24 hrs in by HPLC presence of calcium ionophore […] and lipopolysaccharide; assay type: tissue-based
# T1 sequence (O02768 whole entry): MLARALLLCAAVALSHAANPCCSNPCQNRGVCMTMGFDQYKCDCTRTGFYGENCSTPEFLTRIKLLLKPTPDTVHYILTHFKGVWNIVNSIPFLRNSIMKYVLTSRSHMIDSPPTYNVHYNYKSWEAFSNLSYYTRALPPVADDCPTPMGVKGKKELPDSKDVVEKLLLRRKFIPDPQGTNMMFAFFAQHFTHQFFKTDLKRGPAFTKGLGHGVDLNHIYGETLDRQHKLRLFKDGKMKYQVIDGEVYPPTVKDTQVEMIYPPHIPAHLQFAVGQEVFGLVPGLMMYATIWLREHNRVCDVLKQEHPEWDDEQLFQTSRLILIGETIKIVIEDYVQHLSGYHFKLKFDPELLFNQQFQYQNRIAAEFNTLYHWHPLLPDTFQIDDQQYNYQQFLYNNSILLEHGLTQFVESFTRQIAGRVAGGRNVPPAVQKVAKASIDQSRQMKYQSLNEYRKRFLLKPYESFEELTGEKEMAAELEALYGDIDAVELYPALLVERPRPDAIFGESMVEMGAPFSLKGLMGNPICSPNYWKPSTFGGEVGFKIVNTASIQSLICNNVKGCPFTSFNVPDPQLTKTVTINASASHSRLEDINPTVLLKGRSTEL
# [9] = molecular target: T2, Prostaglandin G/H synthase 1 (Oryctolagus cuniculus, UniProt O97554); test: Inhibition of COX-1 in rabbit peripheral venous blood assessed as formation of 12-hydroxyheptadecatrienoic acid after 24 hrs by HPLC in presence of calcium ionophore A23187
# T2 sequence (O97554 whole entry): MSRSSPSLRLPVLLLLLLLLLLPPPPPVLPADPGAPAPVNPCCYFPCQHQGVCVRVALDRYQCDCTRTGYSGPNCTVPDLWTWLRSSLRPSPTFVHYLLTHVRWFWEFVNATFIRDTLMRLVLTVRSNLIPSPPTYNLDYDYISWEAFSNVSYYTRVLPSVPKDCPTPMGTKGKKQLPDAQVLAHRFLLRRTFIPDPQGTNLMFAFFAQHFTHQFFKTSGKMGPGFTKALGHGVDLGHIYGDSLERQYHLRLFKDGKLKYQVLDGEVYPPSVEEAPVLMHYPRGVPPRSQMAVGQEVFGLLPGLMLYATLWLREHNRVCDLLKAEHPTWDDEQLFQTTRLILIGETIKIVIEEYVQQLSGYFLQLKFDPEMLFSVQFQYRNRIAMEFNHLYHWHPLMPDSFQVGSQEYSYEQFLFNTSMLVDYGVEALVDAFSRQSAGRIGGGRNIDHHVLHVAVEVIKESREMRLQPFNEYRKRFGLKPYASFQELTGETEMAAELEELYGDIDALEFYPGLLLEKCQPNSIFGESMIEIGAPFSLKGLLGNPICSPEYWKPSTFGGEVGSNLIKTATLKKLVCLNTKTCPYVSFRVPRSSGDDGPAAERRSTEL
# [10] = tested on: Rattus norvegicus; test: Antiinflammatory activity in Wistar rat assessed as inhibition of carrageenan-induced paw edema at 10.12 mg/kg, po administered 1 hr before carrageenan challenge measured at 1 hr by plethysmometer; assay type: functional
# [11] = tested on: Rattus norvegicus; test: Antiinflammatory activity in Wistar rat assessed as inhibition of carrageenan-induced paw edema at 10.12 mg/kg, po administered 1 hr before carrageenan challenge measured at 3 hrs by plethysmometer; assay type: functional
# [12] = tested on: Rattus norvegicus; test: Antiinflammatory activity in Wistar rat assessed as inhibition of carrageenan-induced paw edema at 10.12 mg/kg, po administered 1 hr before carrageenan challenge measured at 6 hrs by plethysmometer; assay type: functional
# [13] = tested on: Mus musculus; test: Analgesic activity in BALB/c mouse assessed as inhibition of acetic acid-induced writhing response for 15 mins at 20.24 mg/kg, po; assay type: functional; conditions: 0.25 h
# [14] = tested on: Rattus norvegicus; test: Ulcerogenic effect in Wistar rat assessed as gastric ulcer area at 10.12 mg/kg, po administered for 7 days by microscopy; assay type: toxicity, organism-based, Stomach; design: dose 10.12 mg/kg, route oral; conditions: in vivo, 168 h
# [15] = tested on: Rattus norvegicus; test: Antiinflammatory activity in Wistar rat assessed as inhibition of carrageenan-induced paw edema at 10.38 mg/kg, po administered 1 hr before carrageenan challenge measured at 1 hr by plethysmometer; assay type: functional
# [16] = tested on: Rattus norvegicus; test: Antiinflammatory activity in Wistar rat assessed as inhibition of carrageenan-induced paw edema at 10.38 mg/kg, po administered 1 hr before carrageenan challenge measured at 3 hrs by plethysmometer; assay type: functional
# [17] = tested on: Rattus norvegicus; test: Antiinflammatory activity in Wistar rat assessed as inhibition of carrageenan-induced paw edema at 10.38 mg/kg, po administered 1 hr before carrageenan challenge measured at 6 hrs by plethysmometer; assay type: functional
# [18] = tested on: Mus musculus; test: Analgesic activity in BALB/c mouse assessed as inhibition of acetic acid-induced writhing response for 15 mins at 20.76 mg/kg, po; assay type: functional; conditions: 0.25 h
# [19] = tested on: Rattus norvegicus; test: Ulcerogenic effect in Wistar rat assessed as gastric ulcer area at 10.38 mg/kg, po administered for 7 days by microscopy; assay type: toxicity, organism-based, Stomach; design: dose 10.38 mg/kg, route oral; conditions: in vivo, 168 h
# [20] = tested on: Rattus norvegicus; test: Antiinflammatory activity in Wistar rat assessed as inhibition of carrageenan-induced paw edema at 9.65 mg/kg, po administered 1 hr before carrageenan challenge measured at 1 hr by plethysmometer; assay type: functional
# [21] = tested on: Rattus norvegicus; test: Antiinflammatory activity in Wistar rat assessed as inhibition of carrageenan-induced paw edema at 9.65 mg/kg, po administered 1 hr before carrageenan challenge measured at 3 hrs by plethysmometer; assay type: functional
# [22] = tested on: Rattus norvegicus; test: Antiinflammatory activity in Wistar rat assessed as inhibition of carrageenan-induced paw edema at 9.65 mg/kg, po administered 1 hr before carrageenan challenge measured at 6 hrs by plethysmometer; assay type: functional
# [23] = tested on: Mus musculus; test: Analgesic activity in BALB/c mouse assessed as inhibition of acetic acid-induced writhing response for 15 mins at 19.30 mg/kg, po; assay type: functional; conditions: 0.25 h
# [24] = tested on: Rattus norvegicus; test: Ulcerogenic effect in Wistar rat assessed as gastric ulcer area at 9.65 mg/kg, po administered for 7 days by microscopy; assay type: toxicity, organism-based, Stomach; design: dose 9.65 mg/kg, route oral; conditions: in vivo, 168 h
# [25] = tested on: Rattus norvegicus; test: Antiinflammatory activity in Wistar rat assessed as inhibition of carrageenan-induced paw edema at 10.47 mg/kg, po administered 1 hr before carrageenan challenge measured at 1 hr by plethysmometer; assay type: functional
# [26] = tested on: Rattus norvegicus; test: Antiinflammatory activity in Wistar rat assessed as inhibition of carrageenan-induced paw edema at 10.47 mg/kg, po administered 1 hr before carrageenan challenge measured at 3 hrs by plethysmometer; assay type: functional
# [27] = tested on: Rattus norvegicus; test: Antiinflammatory activity in Wistar rat assessed as inhibition of carrageenan-induced paw edema at 10.47 mg/kg, po administered 1 hr before carrageenan challenge measured at 6 hrs by plethysmometer; assay type: functional
# [28] = tested on: Mus musculus; test: Analgesic activity in BALB/c mouse assessed as inhibition of acetic acid-induced writhing response for 15 mins at 20.94 mg/kg, po; assay type: functional; conditions: 0.25 h
# [29] = tested on: Rattus norvegicus; test: Ulcerogenic effect in Wistar rat assessed as gastric ulcer area at 10.47 mg/kg, po administered for 7 days by microscopy; assay type: toxicity, organism-based, Stomach; design: dose 10.47 mg/kg, route oral; conditions: in vivo, 168 h
structure (smiles),measurement,setting,value
CC(C)(C)c1cc(/C=C2\SC(=N)NC2=O)cc(C(C)(C)C)c1O.CS(=O)(=O)O [DARBUFELONE MESYLATE],IC50,[1],0.61 µM
same,Ratio IC50,[2],342
same,inhibition in vivo at 13 mg/kg,[3],19.1%
same,inhibition in vivo at 1 mg/kg,[4],36.1%
same,inhibition in vivo at 13 mg/kg,[5],17.6%
same,inhibition in vivo at 26 mg/kg,[6],86.2%
same,Activity,[7],0.87 mm2
CS(=O)(=O)c1ccc(/C=C2/C(=O)Nc3cc(Cl)ccc32)cc1,IC50,[8],2.39 µM
same,IC50,[9],0.24 µM
same,IC50,[1],2.99 µM
same,Ratio IC50,[2],0.1
same,inhibition in vivo at 10.12 mg/kg,[10],19.4%
same,inhibition in vivo at 10.12 mg/kg,[11],23.8%
same,inhibition in vivo at 10.12 mg/kg,[12],21.6%
same,inhibition in vivo at 20.24 mg/kg,[13],55.2%
same,Activity,[14],0.75 mm2
NC(=O)N1C(=O)/C(=C(\O)c2cccs2)c2cc(Cl)ccc21 [TENIDAP],IC50,[9],2.56 µM
same,IC50,[1],36.7 µM
same,inhibition in vivo at 10.38 mg/kg,[15],23.8%
same,inhibition in vivo at 10.38 mg/kg,[16],38.9%
same,inhibition in vivo at 10.38 mg/kg,[17],19.6%
same,inhibition in vivo at 20.76 mg/kg,[18],70.4%
same,Activity,[19],3.75 mm2
NS(=O)(=O)c1ccc(/C=C2/C(=O)Nc3ccc(Br)cc32)cc1,IC50,[8],20.9 µM
same,IC50,[9],24.6 µM
same,IC50,[1],10.6 µM
same,Ratio IC50,[2],1.18
NS(=O)(=O)c1ccc(/C=C2/C(=O)Nc3ccc(F)cc32)cc1,IC50,[8],0.18 µM
same,IC50,[9],0.62 µM
same,IC50,[1],9.87 µM
same,Ratio IC50,[2],3.44
same,inhibition in vivo at 9.65 mg/kg,[20],33.3%
same,inhibition in vivo at 9.65 mg/kg,[21],44.4%
same,inhibition in vivo at 9.65 mg/kg,[22],27.4%
same,inhibition in vivo at 19.3 mg/kg,[23],54%
same,Activity,[24],0.45 mm2
NS(=O)(=O)c1ccc(/C=C2/C(=O)Nc3ccc([N+](=O)[O-])cc32)cc1,IC50,[8],3.72 µM
same,IC50,[9],0.14 µM
same,IC50,[1],3.06 µM
same,Ratio IC50,[2],0.04
same,inhibition in vivo at 10.47 mg/kg,[25],9.52%
same,inhibition in vivo at 10.47 mg/kg,[26],22.2%
same,inhibition in vivo at 10.47 mg/kg,[27],13.7%
same,inhibition in vivo at 20.94 mg/kg,[28],40.8%
same,Activity,[29],0.12 mm2
CS(=O)(=O)c1ccc(/C=C2/C(=O)Nc3ccc(F)cc32)cc1,IC50,[8],> 50 µM
same,IC50,[9],8.99 µM
same,IC50,[1],9.42 µM
